{"source": "paper PMC2259182", "about": "“Identification of biomarkers for the antiangiogenic and antitumour activity of the superoxide dismutase 1 (SOD1) inhibitor tetrathiomolybdate (ATN-224)” (British Journal of Cancer, 2008)", "target": "T1, Purified bovine SOD1 (Bos taurus, UniProt P00442)", "T1 construct": "commercial purified enzyme (Sigma)", "T1 sequence (P00442 2-152)": "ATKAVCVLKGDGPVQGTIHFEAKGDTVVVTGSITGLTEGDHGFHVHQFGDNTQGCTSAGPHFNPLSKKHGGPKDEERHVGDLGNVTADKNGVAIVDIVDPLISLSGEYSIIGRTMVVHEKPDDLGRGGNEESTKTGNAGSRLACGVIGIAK", "assay": "WST-1 reduction by xanthine oxidase-generated superoxide", "assay_type": "biochemical", "note": "pIC50: −log10 of the molar value.", "data": [{"molecule": "[S]=[Mo](=[S])([SH])[SH]", "note": "[ATN-224]", "values": [{"measurement": "pIC50", "result": 5.69}]}]}
